Source: publication PMC8465290, “Zoledronic Acid as a Novel Dual Blocker of KIR6.1/2-SUR2 Subunits of ATP-Sensitive K^+ Channels: Role in the Adverse Drug Reactions” (Pharmaceutics, 2021)

Assay: Pharmacovigilance analysis of A.D.R. in EudraVigilance database
Parameters: species or system human
Conditions: for rhabdomyolysis, % of A.D.R.: within musculoskeletal and connective tissue disorders
Source text: All coding preferred terms per System Organ Class (S.O.C.) were screened in the EudraVigilance database (http://www.adrreports.eu/ accessed on 1 May 2021), and those potentially associated with KATP channel blocking actions were reported and subject to analysis.
The data were extracted from EudraVigilance, collected, and analyzed on Microsoft 365 Excel software package (Microsoft 10.00). The not specified category was not included in the calculation. The duplication of a specific report per S.O.C. was evaluated manually and excluded from the analysis.
The Proportional Reporting Ratio (P.R.R.) was calculated using the following equation: a/(a+c)/b/(b + d) where a is the reaction of interest to a given drug of interest, b is the reaction of interest for all other drugs in the class, c are all other reactions to a given drug of interest, and d are all other reactions to all other drugs in the class. Signal definition: P.R.R. ≥ 2, a minimum of three ratios/cases for the reaction of interest, X^2 ≥ 4. No signal is identified if P.R.R. is = 1 [47].

[1] = within the KATP channel blockers

Structure (SMILES)	hypoglycemia, % of the A.D.R. per S.O.C. [%]	rhabdomyolysis, % of A.D.R. [%]	Proportional Reporting Ratio (P.R.R.) arrhythmias [1]	Proportional Reporting Ratio (P.R.R.) hypoglycemia [1]	Proportional Reporting Ratio (P.R.R.) palpitations [1]	Proportional Reporting Ratio (P.R.R.) rhabdomyolysis [1]	Proportional Reporting Ratio (P.R.R.) muscular weakness [1]
CC(C)[C@H]1CC[C@H](C(=O)N[C@H](Cc2ccccc2)C(=O)O)CC1 [nateglinide]	77.9	18.4	≥ 2	≥ 2	≥ 2	≥ 2	
Cc1ccc(S(=O)(=O)NC(=O)NN2CC3CCCC3C2)cc1 (stereo not shown) [gliclazide]							≥ 2
CCC1=C(C)CN(C(=O)NCCc2ccc(S(=O)(=O)NC(=O)N[C@H]3CC[C@H](C)CC3)cc2)C1=O [glimepiride]	75.6	17.7		≥ 2			
